Measurements published in ChEMBL document CHEMBL6109109, “Fatty acid binding protein 5 inhibitors as novel anticancer agents against metastatic castration-resistant prostate cancer” (Bioorg Med Chem, 2025).

Tests used:
[1] = Binding affinity to FABP5 (unknown origin); set-up: species or system Homo sapiens
PC-3 = assay: Cytotoxicity against human PC-3 cells assessed as reduction in cell viability measured after 72 hrs by MTT assay; type: functional, cell-based; conditions: PC-3, 72 h
[2] = Cytotoxicity against human WI-38 cells assessed as reduction in cell viability measured after 72 hrs by MTT assay; type: toxicity, cell-based
[3] = Cytotoxicity against mouse RCap cells assessed as reduction in cell viability measured after 72 hrs by MTT assay; type: functional, cell-based

| SMILES | Ki [1] | IC50 (PC-3) | IC50 at 72 h [2] | IC50 [3] |
| --- | --- | --- | --- | --- |
| O=C(O)[C@H]1[C@H](c2ccccc2)[C@@H](C(=O)Oc2cc(-c3ccc4c(c3)OCCO4)cc3c2OCCO3)[C@H]1c1ccccc1 | 3.5 µM | 20.7 µM | – | – |
| COc1ccccc1[C@H]1[C@H](C(=O)O)[C@H](c2ccccc2OC)[C@H]1C(=O)Oc1cc(-c2ccc3c(c2)OCO3)ccc1-c1cnn(C)c1 | 0.54 µM | 5.71 µM | 29.8 µM | 7.94 µM |
| COc1ccccc1[C@H]1[C@H](C(=O)O)[C@H](c2ccccc2OC)[C@H]1C(=O)OCC1(F)c2ccccc2-c2ccccc21 | 1.83 µM | 11.8 µM | 55.6 µM | 13 µM |
| O=C(O)[C@@H]1[C@@H](c2ccccc2)[C@H](C(=O)OCc2ccccc2-c2ccccc2)[C@H]1c1ccccc1 | 1.65 µM | 22.1 µM | – | – |
| COc1ccccc1[C@H]1[C@H](C(=O)O)[C@H](c2ccccc2OC)[C@@H]1C(=O)Oc1ccc(OC)c2ccccc12 | 26.6 µM | 19.6 µM | – | – |
| COc1ccccc1[C@H]1[C@H](C(=O)O)[C@H](c2ccccc2OC)[C@H]1C(=O)Oc1cccc(-c2ccc3c(c2)NC(=O)C3)c1 | 1.06 µM | 16.2 µM | – | – |
| COc1ccccc1[C@H]1[C@H](C(=O)O)[C@H](c2ccccc2OC)[C@H]1C(=O)Oc1cccc(-c2ccc3c(c2)OCCO3)c1 | 1.56 µM | 13 µM | 54.7 µM | 12.5 µM |
| N#CCc1ccc(-c2ccc3c(c2)OCO3)cc1OC(=O)[C@H]1[C@@H](c2ccccc2)[C@@H](C(=O)O)[C@@H]1c1ccccc1 | 1.42 µM | 12.8 µM | 66.3 µM | – |
| COc1ccccc1[C@H]1[C@H](C(=O)O)[C@H](c2ccccc2OC)[C@H]1C(=O)Oc1cccc(-c2cccc3c2OCO3)c1 | 0.41 µM | 12.4 µM | 35.1 µM | 19.5 µM |
| O=C1CCc2cc(-c3cccc(OC(=O)[C@H]4[C@@H](c5ccccc5)[C@H](C(=O)O)[C@@H]4c4ccccc4)c3)ccc2N1 | 0.74 µM | 11.4 µM | 42.8 µM | 12.6 µM |
| COc1ccccc1[C@H]1[C@H](C(=O)O)[C@H](c2ccccc2OC)[C@H]1C(=O)Oc1cc(-c2ccc3c(c2)OCO3)ccc1Br | 0.35 µM | 10.4 µM | 15.6 µM | 8.48 µM |
| C#Cc1ccc(-c2ccc3c(c2)OCO3)cc1OC(=O)[C@H]1[C@@H](c2ccccc2OC)[C@@H](C(=O)O)[C@@H]1c1ccccc1OC | 1.68 µM | 21.8 µM | – | – |
| O=C1Cc2cc(-c3cccc(OC(=O)[C@H]4[C@@H](c5ccccc5)[C@@H](C(=O)O)[C@@H]4c4ccccc4)c3)ccc2N1 | 2.21 µM | 20 µM | – | – |
| N#CCc1ccc(-c2ccc3c(c2)OCO3)cc1OC(=O)[C@H]1[C@@H](c2ccccc2)[C@H](C(=O)O)[C@@H]1c1ccccc1 | 0.64 µM | 13 µM | 46.3 µM | – |
| O=C(O)[C@@H]1[C@@H](c2ccccc2)[C@H](C(=O)OCc2cccc3ccccc23)[C@H]1c1ccccc1 | 5.08 µM | 13.1 µM | 27.1 µM | 23.9 µM |
| COc1ccccc1[C@H]1[C@H](C(=O)O)[C@H](c2ccccc2OC)[C@H]1C(=O)Oc1ccccc1-c1ccc2c(c1)OCCO2 | 2.81 µM | 17.8 µM | – | – |
| COc1ccccc1[C@H]1[C@H](C(=O)O)[C@H](c2ccccc2OC)[C@H]1C(=O)Oc1cc(-c2ccc(C#N)cc2)ccc1CC#N | 0.77 µM | 6.39 µM | 25.4 µM | 12.4 µM |
| O=C1Cc2ccc(-c3ccccc3OC(=O)[C@H]3[C@@H](c4ccccc4)[C@H](C(=O)O)[C@@H]3c3ccccc3)cc2N1 | 0.29 µM | 63.9 µM | – | – |
| Cn1cc(-c2ccc(-c3ccc4c(c3)OCO4)cc2OC(=O)[C@H]2[C@@H](c3ccccc3)[C@@H](C(=O)O)[C@@H]2c2ccccc2)cn1 | 0.76 µM | 10.3 µM | 26.4 µM | 6.16 µM |
| COc1ccccc1[C@H]1[C@H](C(=O)O)[C@H](c2ccccc2OC)[C@@H]1C(=O)Oc1cccc2ccccc12 | – | 25.5 µM | – | – |
| O=C(O)[C@H]1[C@H](c2ccccc2)[C@H](C(=O)Oc2cc(-c3ccc4c(c3)OCO4)ccc2Br)[C@H]1c1ccccc1 | 0.37 µM | 9.36 µM | 24.8 µM | 14.8 µM |
| COc1ccccc1[C@H]1[C@H](C(=O)O)[C@H](c2ccccc2OC)[C@H]1C(=O)OC1Cc2ccccc2C1 | – | 16.5 µM | – | – |
| O=C(O)[C@H]1[C@H](c2ccccc2)[C@H](C(=O)Oc2cccc(C3=CCOCC3)c2)[C@H]1c1ccccc1 | 1.75 µM | 52 µM | – | – |
| Cn1cc(-c2ccc(-c3ccc4c(c3)OCO4)cc2OC(=O)[C@H]2[C@@H](c3ccccc3)[C@H](C(=O)O)[C@@H]2c2ccccc2)cn1 | 0.29 µM | 9.66 µM | 24.1 µM | 8.82 µM |
| O=C(O)[C@H]1[C@H](c2ccccc2)[C@H](C(=O)Oc2cc(-c3ccc4c(c3)OCO4)ccc2-c2cncnc2)[C@H]1c1ccccc1 | – | 12.5 µM | 95.5 µM | 30.2 µM |
| N#Cc1ccc(-c2ccc3c(c2)OCCO3)cc1OC(=O)[C@H]1[C@@H](c2ccccc2)[C@H](C(=O)O)[C@@H]1c1ccccc1 | 0.64 µM | 15.1 µM | – | – |

| SMILES | Ki [1] | IC50 (PC-3) | IC50 at 72 h [2] | IC50 [3] |
| --- | --- | --- | --- | --- |
| COc1ccccc1[C@H]1[C@H](C(=O)O)[C@H](c2ccccc2OC)[C@H]1C(=O)Oc1cccc(-c2ccc(C#N)cc2)c1 | 1.74 µM | 8.17 µM | 26.1 µM | 19.1 µM |
| C#Cc1ccc(-c2ccc3c(c2)OCO3)cc1OC(=O)[C@H]1[C@@H](c2ccccc2OC)[C@H](C(=O)O)[C@@H]1c1ccccc1OC | 1.21 µM | 11.4 µM | 72.1 µM | 14.8 µM |
| O=C(O)[C@H]1[C@H](c2ccccc2)[C@H](C(=O)OCc2cccc3ccccc23)[C@H]1c1ccccc1 | 2.64 µM | 19.1 µM | – | – |
| O=C(O)[C@H]1[C@H](c2ccccc2)[C@@H](C(=O)Oc2cc(-c3ccc4c(c3)OCO4)ccc2-c2cncnc2)[C@H]1c1ccccc1 | – | 5.88 µM | 31.5 µM | 2.92 µM |
| O=C(O)[C@H]1[C@H](c2ccccc2)[C@H](C(=O)Oc2cccc(-c3ccc(O)c(O)c3)c2)[C@H]1c1ccccc1 | 1.25 µM | 52.9 µM | – | – |
| O=C(O)[C@H]1[C@H](c2ccccc2)[C@H](C(=O)Oc2cccc(-c3ccc4c(c3)OCCO4)c2)[C@H]1c1ccccc1 | 0.66 µM | 13.1 µM | 66.5 µM | 14.5 µM |
| O=C(O)[C@H]1[C@H](c2ccccc2)[C@@H](C(=O)Oc2cc(-c3ccc4c(c3)OCO4)ccc2Br)[C@H]1c1ccccc1 | 0.89 µM | 7.72 µM | 25.9 µM | 9.98 µM |
| COc1ccccc1[C@H]1[C@H](C(=O)O)[C@H](c2ccccc2OC)[C@H]1C(=O)Oc1ccccc1-c1ccc2c(c1)OCO2 | 1.59 µM | 19.9 µM | – | – |
| COc1ccccc1[C@H]1[C@H](C(=O)O)[C@H](c2ccccc2OC)[C@H]1C(=O)Oc1ccccc1-c1ccccc1 | 1.59 µM | 19.8 µM | – | – |
| O=C(O)[C@H]1[C@H](c2ccccc2)[C@@H](C(=O)Oc2cccc(-c3ccc4c(c3)OCCO4)c2)[C@H]1c1ccccc1 | 2.47 µM | 9.5 µM | 31.8 µM | 13.6 µM |
| O=C(O)[C@@H]1[C@@H](c2ccccc2)[C@H](C(=O)Oc2cccc3ccccc23)[C@H]1c1ccccc1 | – | 23.8 µM | – | – |
| COc1ccccc1[C@H]1[C@H](C(=O)O)[C@H](c2ccccc2OC)[C@H]1C(=O)Oc1cc(-c2ccc(C#N)cc2)ccc1-c1cncnc1 | 0.38 µM | 14.9 µM | – | – |
| COc1ccccc1[C@H]1[C@H](C(=O)O)[C@H](c2ccccc2OC)[C@@H]1C(=O)Oc1cccc(-c2cccc3c2OCO3)c1 | 1.26 µM | 15.7 µM | 49 µM | 29 µM |
| O=C(O)[C@H]1[C@H](c2ccccc2)[C@H](C(=O)Oc2ccccc2-c2ccccc2)[C@H]1c1ccccc1 | – | 16.2 µM | – | – |
| COc1ccccc1[C@H]1[C@H](C(=O)O)[C@H](c2ccccc2OC)[C@H]1C(=O)OCCc1ccccc1-c1ccccc1 | 0.51 µM | 11.9 µM | 51 µM | 14.2 µM |
| O=C(O)[C@H]1[C@H](c2ccccc2)[C@H](C(=O)OC2Cc3ccccc3C2)[C@H]1c1ccccc1 | – | 37.6 µM | – | – |
| O=C(O)[C@H]1[C@H](c2ccccc2)[C@H](C(=O)Oc2cc(-c3ccc4c(c3)OCCO4)cc3c2OCCO3)[C@H]1c1ccccc1 | 1.15 µM | 11.8 µM | 68.5 µM | 13.5 µM |
| COc1ccccc1[C@H]1[C@H](C(=O)O)[C@H](c2ccccc2OC)[C@H]1C(=O)Oc1cccc(-c2ccc(O)c(O)c2)c1 | 1.25 µM | 40.1 µM | – | – |
| COc1ccccc1[C@H]1[C@H](C(=O)O)[C@H](c2ccccc2OC)[C@H]1C(=O)Oc1cc(-c2ccccc2)ccc1CC#N | 0.81 µM | 7.31 µM | 24.4 µM | 8.31 µM |
| O=C(O)[C@H]1[C@H](c2ccccc2)[C@@H](C(=O)Oc2cc(-c3ccc4c(c3)OCO4)ccc2-c2ccccc2)[C@H]1c1ccccc1 | 1.17 µM | 9.76 µM | 22.4 µM | 5.53 µM |
| N#CCc1ccc(-c2ccccc2)cc1OC(=O)[C@H]1[C@@H](c2ccccc2)[C@H](C(=O)O)[C@@H]1c1ccccc1 | 0.64 µM | 9.47 µM | 47.3 µM | 22.4 µM |
| N#Cc1ccc(-c2ccccc2OC(=O)[C@H]2[C@@H](c3ccccc3)[C@@H](C(=O)O)[C@@H]2c2ccccc2)cc1 | 1.39 µM | 20.5 µM | – | – |
| COc1ccccc1[C@H]1[C@H](C(=O)O)[C@H](c2ccccc2OC)[C@H]1C(=O)Oc1cccc(-c2ccc(F)cc2)c1 | 1.03 µM | 10.8 µM | 29.2 µM | 12.3 µM |
| O=C(O)[C@H]1[C@H](c2ccccc2)[C@H](C(=O)Oc2ccc3cc(-c4cncnc4)ccc3c2)[C@H]1c1ccccc1 | – | 12.1 µM | 91.9 µM | 18.7 µM |
| CC(=O)N1CC=C(c2cccc(OC(=O)[C@H]3[C@@H](c4ccccc4)[C@@H](C(=O)O)[C@@H]3c3ccccc3)c2)CC1 | 28.9 µM | 67.4 µM | – | – |
